Among the data in US12030878B2 (BRISTOL-MYERS SQUIBB COMPANY, priority 2017, dated 2024) are IC50 values, retold here.

The structures appear in SMILES notation.

What all share (assay type): cell-based
One test concerns the target T1, human TLR9 (Homo sapiens, UniProt Q9NR96).
T1 construct: host or cells: HEK-Blue cells
T1 sequence (Q9NR96 26-1032): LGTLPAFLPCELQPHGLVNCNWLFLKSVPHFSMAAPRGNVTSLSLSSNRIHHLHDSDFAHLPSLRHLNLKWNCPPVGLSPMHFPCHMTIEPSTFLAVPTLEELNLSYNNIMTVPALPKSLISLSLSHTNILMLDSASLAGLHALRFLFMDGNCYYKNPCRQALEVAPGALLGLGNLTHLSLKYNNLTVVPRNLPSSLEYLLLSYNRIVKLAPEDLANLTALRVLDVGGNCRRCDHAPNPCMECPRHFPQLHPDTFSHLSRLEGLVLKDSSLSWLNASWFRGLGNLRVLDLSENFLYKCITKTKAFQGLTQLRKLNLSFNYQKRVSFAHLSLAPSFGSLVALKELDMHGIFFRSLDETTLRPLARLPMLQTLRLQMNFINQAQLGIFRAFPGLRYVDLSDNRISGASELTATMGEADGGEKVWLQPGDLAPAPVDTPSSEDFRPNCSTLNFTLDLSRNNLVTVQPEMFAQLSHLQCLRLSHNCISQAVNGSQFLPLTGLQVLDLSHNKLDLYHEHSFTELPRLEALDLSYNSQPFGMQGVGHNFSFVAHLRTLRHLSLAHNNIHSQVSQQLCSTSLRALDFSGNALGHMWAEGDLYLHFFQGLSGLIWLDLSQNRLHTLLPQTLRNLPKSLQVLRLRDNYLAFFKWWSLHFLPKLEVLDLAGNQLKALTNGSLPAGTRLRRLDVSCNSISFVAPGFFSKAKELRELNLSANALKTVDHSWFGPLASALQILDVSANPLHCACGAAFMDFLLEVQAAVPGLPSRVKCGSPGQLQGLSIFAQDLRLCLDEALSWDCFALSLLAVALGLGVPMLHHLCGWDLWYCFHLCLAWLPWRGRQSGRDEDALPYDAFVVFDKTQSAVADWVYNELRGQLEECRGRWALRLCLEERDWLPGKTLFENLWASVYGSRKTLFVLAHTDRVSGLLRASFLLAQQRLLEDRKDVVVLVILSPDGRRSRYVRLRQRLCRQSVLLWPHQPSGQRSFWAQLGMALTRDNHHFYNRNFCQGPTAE
Briefly: TLR9 inhibition reporter assay (HEK-Blue SEAP). As to conditions: HEK-Blue cells overexpressing human TLR9, stimulated with ODN2006 5 nM, 22 hour incubation. In short, it runs like this: (§1)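 HEK-Blue cells with NF-κB/AP-1-driven SEAP reporter; compounds 0.05 nM-50 μM, 30 min pre-treatment at room temperature, then agonist: gardiquimod 7.5 μM (TLR7), R848 15.9 μM (TLR8) or ODN2006 5 nM (TLR9). SEAP read after 22 h at 37 °C; percent inhibition versus agonist-plus-DMSO and reference-inhibitor wells.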
On the technique in general: A reporter such as luciferase makes a cellular process visible.

Another test addresses T2, human TLR8 (Homo sapiens, UniProt Q9NR97).
T2 construct: host or cells: HEK-Blue cells
T2 sequence (Q9NR97 27-1041): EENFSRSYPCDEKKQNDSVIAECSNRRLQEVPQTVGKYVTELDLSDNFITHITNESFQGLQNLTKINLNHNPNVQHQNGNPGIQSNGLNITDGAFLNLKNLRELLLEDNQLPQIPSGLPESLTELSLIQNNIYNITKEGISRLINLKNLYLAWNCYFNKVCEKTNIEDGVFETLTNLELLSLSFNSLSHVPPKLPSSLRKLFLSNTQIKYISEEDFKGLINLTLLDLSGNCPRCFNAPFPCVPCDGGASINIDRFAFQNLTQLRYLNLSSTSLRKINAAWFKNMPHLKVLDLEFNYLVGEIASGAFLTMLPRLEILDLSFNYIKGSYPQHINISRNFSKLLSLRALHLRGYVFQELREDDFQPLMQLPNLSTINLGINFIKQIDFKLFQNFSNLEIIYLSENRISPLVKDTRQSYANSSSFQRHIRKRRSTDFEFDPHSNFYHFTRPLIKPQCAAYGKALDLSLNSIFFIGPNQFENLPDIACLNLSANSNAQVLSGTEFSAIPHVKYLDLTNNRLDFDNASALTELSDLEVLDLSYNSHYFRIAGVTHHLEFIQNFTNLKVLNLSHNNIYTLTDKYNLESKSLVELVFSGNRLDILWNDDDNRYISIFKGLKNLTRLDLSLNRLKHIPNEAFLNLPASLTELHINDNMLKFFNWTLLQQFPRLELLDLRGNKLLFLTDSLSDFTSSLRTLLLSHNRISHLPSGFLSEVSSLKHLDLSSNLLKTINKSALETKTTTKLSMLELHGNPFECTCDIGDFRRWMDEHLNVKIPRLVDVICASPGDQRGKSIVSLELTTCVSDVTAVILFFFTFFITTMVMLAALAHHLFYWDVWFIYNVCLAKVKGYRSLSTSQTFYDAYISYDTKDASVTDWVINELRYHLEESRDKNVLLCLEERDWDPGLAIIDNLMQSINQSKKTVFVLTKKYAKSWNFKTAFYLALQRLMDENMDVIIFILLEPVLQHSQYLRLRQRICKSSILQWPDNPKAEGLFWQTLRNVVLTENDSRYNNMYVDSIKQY
Nature of the test: TLR8 inhibition reporter assay (HEK-Blue SEAP). As to conditions: HEK-Blue cells overexpressing human TLR8, stimulated with R848 15.9 μM, 22 hour incubation. In a few lines: as §1

Another test addresses T3, human TLR7 (Homo sapiens, UniProt Q9NYK1).
T3 construct: host or cells: HEK-Blue cells
T3 sequence (Q9NYK1 27-1049): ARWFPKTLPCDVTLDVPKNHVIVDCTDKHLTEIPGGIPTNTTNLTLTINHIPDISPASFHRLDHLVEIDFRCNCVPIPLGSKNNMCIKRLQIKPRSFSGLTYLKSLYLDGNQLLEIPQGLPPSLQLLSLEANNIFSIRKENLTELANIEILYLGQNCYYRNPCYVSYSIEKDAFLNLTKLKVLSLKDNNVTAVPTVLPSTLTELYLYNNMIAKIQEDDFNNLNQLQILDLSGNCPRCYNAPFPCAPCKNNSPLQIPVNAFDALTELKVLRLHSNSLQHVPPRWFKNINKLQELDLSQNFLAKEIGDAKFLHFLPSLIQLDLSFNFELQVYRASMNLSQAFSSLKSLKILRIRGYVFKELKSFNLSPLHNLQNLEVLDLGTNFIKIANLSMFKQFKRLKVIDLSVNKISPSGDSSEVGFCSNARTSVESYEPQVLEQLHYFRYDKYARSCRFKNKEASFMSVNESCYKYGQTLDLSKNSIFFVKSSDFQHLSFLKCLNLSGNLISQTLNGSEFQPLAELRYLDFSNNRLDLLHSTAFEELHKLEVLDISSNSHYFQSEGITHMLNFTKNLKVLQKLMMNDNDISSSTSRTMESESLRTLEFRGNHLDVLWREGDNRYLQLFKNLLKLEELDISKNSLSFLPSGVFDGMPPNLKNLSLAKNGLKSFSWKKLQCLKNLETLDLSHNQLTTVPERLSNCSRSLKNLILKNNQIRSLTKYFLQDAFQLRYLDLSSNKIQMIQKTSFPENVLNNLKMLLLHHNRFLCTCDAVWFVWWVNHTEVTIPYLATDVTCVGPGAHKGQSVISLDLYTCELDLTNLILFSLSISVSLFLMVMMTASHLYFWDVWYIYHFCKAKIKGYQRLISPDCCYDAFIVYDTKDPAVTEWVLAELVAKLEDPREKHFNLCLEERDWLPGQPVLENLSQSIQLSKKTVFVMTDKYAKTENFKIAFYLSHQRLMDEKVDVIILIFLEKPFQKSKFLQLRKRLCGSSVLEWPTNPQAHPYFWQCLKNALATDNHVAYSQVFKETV
Briefly: TLR7 inhibition reporter assay (HEK-Blue SEAP). The conditions noted are these: HEK-Blue cells overexpressing human TLR7, stimulated with gardiquimod 7.5 μM, 22 hour incubation. In short, it runs like this:
as §1

For the molecule `Cc1cc(-c2[nH]c3ccc(O[C@H]4CCCN(C5CCOCC5)C4)cc3c2C(C)C)cn(C)c1=O` [Example 40, (S)-5-(3-isopropyl-5-((1-(tetrahydro-2H-pyran-4-yl)piperidin-3-yl)oxy)-1H-indol-2-yl)-1,3-dimethylpyridin-2(1H)-one], the IC50 (usually the concentration that inhibits the measured activity by half) worked out at 5250 nM at human TLR9, 10.8 nM on human TLR8 and 15.9 nM at human TLR7.

`Cc1cc(-c2[nH]c3ccc(OCC4CCN(C)CC4)cc3c2C(C)C)cn2ncnc12` [Example 41, 6-(3-isopropyl-5-((1-methylpiperidin-4-yl)methoxy)-1H-indol-2-yl)-8-methyl-[1,2,4]triazolo[1,5-a]pyridine]: the half-inhibitory concentration (IC50) against human TLR9 came to 3440 nM; on human TLR8 it was 5.7 nM; on human TLR7, 1.2 nM.

For `Cc1cc(-c2[nH]c3ccc(OCC4CCN(C(C)C)CC4)cc3c2C(C)C)cn2ncnc12` [Example 42, 6-(3-isopropyl-5-((1-isopropylpiperidin-4-yl)methoxy)-1H-indol-2-yl)-8-methyl-[1,2,4]triazolo[1,5-a]pyridine], the IC50 against human TLR9 was 350 nM; at human TLR8, 0.4 nM; against human TLR7, 0.2 nM.

Regarding `Cc1cc(-c2[nH]c3ccc(OCC4CCN(C5COC5)CC4)cc3c2C(C)C)cn2ncnc12` [Example 43, 6-(3-isopropyl-5-((1-(oxetan-3-yl)piperidin-4-yl)methoxy)-1H-indol-2-yl)-8-methyl-[1,2,4]triazolo[1,5-a]pyridine], the IC50 was over 50000 nM at human TLR9, 1.1 nM against human TLR8 and 0.6 nM against human TLR7.

For `Cc1cc(-c2[nH]c3ccc(OCC4CCN(C5CCOCC5)CC4)cc3c2C(C)C)cn2ncnc12` [Example 44, 6-(3-isopropyl-5-((1-(tetrahydro-2H-pyran-4-yl)piperidin-4-yl)methoxy)-1H-indol-2-yl)-8-methyl-[1,2,4]triazolo[1,5-a]pyridine], the results for the IC50 against human TLR9, on human TLR8 and against human TLR7 were 1030 nM, 1.4 nM and 0.6 nM, respectively.

For `Cc1c(-c2[nH]c3ccc(OC4CCN(C(C)C)CC4)cc3c2C(C)C)cn(C)c(=O)c1Cl` [Example 45], the values for the IC50 against human TLR9, at human TLR8 and at human TLR7 were 2200 nM, 2.2 nM and 9.6 nM, respectively.

Take `Cc1c(-c2[nH]c3ccc(OC4CCN(C)CC4)cc3c2C(C)C)cn(C)c(=O)c1Cl` [Example 46, 3-chloro-5-(3-isopropyl-5-((1-methylpiperidin-4-yl)oxy)-1H-indol-2-yl)-1,4-dimethylpyridin-2(1H)-one]: the concentration for half-maximal inhibition (IC50) on human TLR9 is 3750 nM; on human TLR8, 3.4 nM; at human TLR7 it was 5.6 nM.

With `Cc1cc(-c2[nH]c3ccc(OC4CCN(C(C)C)CC4)cc3c2C(C)C)cn2ncnc12` [Example 47, 6-(3-isopropyl-5-((1-isopropylpiperidin-4-yl)oxy)-1H-indol-2-yl)-8-methyl-[1,2,4]triazolo[1,5-a]pyridine], the results for the IC50 against human TLR9, on human TLR8 and on human TLR7 were 2480 nM, 1 nM and 0.8 nM, respectively.

In the case of `Cc1c(-c2[nH]c3ccc(OC4CCN(C(C)C)CC4)cc3c2C(C)C)cn(C)c(=O)c1C` [Example 48, 5-(3-isopropyl-5-((1-isopropylpiperidin-4-yl)oxy)-1H-indol-2-yl)-1,3,4-trimethylpyridin-2(1H)-one], the concentration for half-maximal inhibition (IC50) on human TLR9 came to 5040 nM; at human TLR8, 1 nM; on human TLR7, 6.9 nM.

Turning to `Cc1c(-c2[nH]c3ccc(OCC4CCN(C(C)C)CC4)cc3c2C(C)C)cn(C)c(=O)c1C` [Example 49, 5-(3-isopropyl-5-((1-isopropylpiperidin-4-yl)methoxy)-1H-indol-2-yl)-1,3,4-trimethylpyridin-2(1H)-one], the concentration for half-maximal inhibition (IC50) against human TLR9 was determined as 4120 nM; against human TLR8 it was 1.8 nM; against human TLR7 it was 9.2 nM.

For the molecule `Cc1c(-c2[nH]c3ccc(OC4CCN(C5COC5)CC4)cc3c2C(C)C)cn(C)c(=O)c1C` [Example 50, 5-(3-isopropyl-5-((1-(oxetan-3-yl)piperidin-4-yl)oxy)-1H-indol-2-yl)-1,3,4-trimethylpyridin-2(1H)-one], the IC50 against human TLR9 was over 50000 nM; on human TLR8, 21.3 nM; at human TLR7, 123 nM.

Consider `Cc1c(-c2[nH]c3ccc(OCC4CCN(C5COC5)CC4)cc3c2C(C)C)cn(C)c(=O)c1C` [Example 51, 5-(3-isopropyl-5-((1-(oxetan-3-yl)piperidin-4-yl)methoxy)-1H-indol-2-yl)-1,3,4-trimethylpyridin-2(1H)-one], for which the IC50 is over 50000 nM at human TLR9, 2.6 nM against human TLR8 and 19.3 nM at human TLR7.

For `Cc1c(-c2[nH]c3ccc(OCC4CCN(C5COC5)CC4)cc3c2C(C)C)cn2cnnc2c1C` [Example 52, 6-(3-isopropyl-5-((1-(oxetan-3-yl)piperidin-4-yl)methoxy)-1H-indol-2-yl)-7,8-dimethyl-[1,2,4]triazolo[4,3-a]pyridine], the figures for the IC50 at human TLR9, on human TLR8 and on human TLR7 were 7810 nM, 5.8 nM and 6.1 nM, respectively.
